According to PubChem BioAssay (NCI):
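Cultured in 96-well plates, cells were exposed to test compound for 48 hours across five concentrations. At the TGI there is no net growth.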

Columns and labels:
Assay in all cases: NCI anticancer screen, dose series, 48 h
[1] = test system: CAKI-1 renal
[2] = test system: NCI-H23 lung
[3] = test system: SF-295 CNS
[4] = test system: MOLT-4 leukemia
[5] = test system: NCI-H226 lung
[6] = test system: NCI-H460 lung
[7] = test system: T-47D breast
[8] = test system: OVCAR-5 ovarian
[9] = test system: KM12 colon
[10] = test system: HCT-15 colon

Row | SMILES | TGI [1] | TGI [2] | TGI [3] | TGI [4] | TGI [5] | TGI [6] | TGI [7] | TGI [8] | TGI [9] | TGI [10]
1 | O=C1NC2O[C@H](CNC(=O)c3cc(Br)c[nH]3)CC2(O)N1 (mixture of isomers) | > 100 µM | > 100 µM | > 100 µM | > 100 µM | > 100 µM | > 100 µM | > 100 µM | > 100 µM | > 100 µM | > 100 µM
2 | CC(C)OC(=O)/C=C/C(=O)O/C=C/[N+](=O)[O-] | > 100 µM | > 100 µM | > 100 µM | 36.5 µM | > 100 µM | > 100 µM | 46.4 µM | > 100 µM | 70.6 µM | > 100 µM
3 | O=C(c1cccs1)N1CCc2ccccc2C1 | > 100 µM | > 100 µM | > 100 µM | > 100 µM | > 100 µM | > 100 µM | > 100 µM | > 100 µM | > 100 µM | > 100 µM
4 | O=C(/C=C/c1ccc2ccccc2c1)NCc1ccc(C(=O)NCCc2ccccc2)cc1 | > 100 µM | > 100 µM | > 100 µM | > 100 µM | > 100 µM | > 100 µM | > 100 µM | > 100 µM | > 100 µM | > 100 µM
5 | c1ccc(CNc2nncc3[nH]cnc23)cc1 | > 100 µM | > 100 µM | > 100 µM | > 100 µM | > 100 µM |  | > 100 µM | > 100 µM | > 100 µM | > 100 µM
6 | COc1cc(-c2nc3ccccn3c2/N=C/c2cc(Br)cc(Br)c2O)ccc1O | 93.3 µM | 67.9 µM | 50 µM | 73.7 µM | 70.9 µM | > 100 µM | 74.3 µM | > 100 µM | 67.2 µM | 44.8 µM
7 | CCO/C=N\C1=C(C#N)SC2=N/C(=C\c3ccc(OC)cc3)C(=O)N21 | > 100 µM | > 100 µM | > 100 µM | > 100 µM | > 100 µM |  | > 100 µM | > 100 µM | > 100 µM | > 100 µM
8 | COCc1nc2c(OC)c(-c3nc4nc(N5CCN(C)CC5)ccc4[nH]3)cc(OC)c2n1C | > 100 µM | > 100 µM | 92.9 µM | 49.6 µM | 87.4 µM | 78.8 µM | > 100 µM | > 100 µM | 61.6 µM | > 100 µM
9 | COC(=O)c1cc2c(cc1CC(Cc1ccc3c(c1)CCCC3)C(=O)OC)CCCC2 (stereo not given) | > 100 µM | > 100 µM | > 100 µM | > 100 µM | > 100 µM | > 100 µM | > 100 µM | > 100 µM | > 100 µM | > 100 µM
10 | O=C(NCP(=O)(c1ccccc1)c1ccccc1)OCc1ccccc1 | > 100 µM | > 100 µM | > 100 µM | > 100 µM | > 100 µM | > 100 µM | > 100 µM | > 100 µM | > 100 µM | > 100 µM
11 | CC(=O)[C@@H](C)C(=O)N1C(=O)OC[C@@]12[C@@H]1CC[C@@H](C1)C2(C)C | > 100 µM | > 100 µM | > 100 µM |  | > 100 µM | > 100 µM | > 100 µM | > 100 µM | > 100 µM | > 100 µM
12 | CCOC(=O)c1cc2c3ccn(Cc4ccccc4)c3c3c(C)[nH]oc3c2n1 | > 100 µM | > 100 µM | > 100 µM | > 100 µM | > 100 µM | > 100 µM | > 100 µM | > 100 µM | > 100 µM | > 100 µM
13 | COC(=O)c1cc2c(cc1Cl)Sc1nnc(Nc3ccc(C)cc3)n1S2(=O)=O | 22 µM | 15.7 µM | 30.4 µM | 7.07 µM | 28.2 µM | 25.7 µM | 4.12 µM | 39.8 µM | 20.3 µM | 12.5 µM
14 | CCOC(=O)c1c(N2CCOCC2)[nH]c(=O)c(C(c2c(Cl)cccc2Cl)c2c(O)c(C(=O)OCC)c(N3CCOCC3)[nH]c2=O)c1O | 5.24 µM | 21.8 µM | 30.6 µM | 5.51 µM | 27.3 µM | 45.2 µM | 13.2 µM | 27.5 µM | 33.2 µM | 15.6 µM
15 | CSc1nnc(SC)nn1 | 31.4 µM | 49.4 µM | 33.9 µM | 2.37 µM | 96.5 µM | 32.9 µM | > 100 µM | 33.6 µM | 30 µM | 35.2 µM
16 | Nc1ccc(Cc2c(N)[nH]c(=O)[nH]c2=O)cc1 | > 100 µM | > 100 µM | > 100 µM | > 100 µM | > 100 µM | > 100 µM | > 100 µM | > 100 µM |  | > 100 µM
17 | CO/C=C(/C(=O)OC)c1ccccc1COc1cccc(C(F)(F)F)c1 | 53.9 µM | > 100 µM | > 100 µM | > 100 µM | 71.2 µM | > 100 µM | 91.4 µM | > 100 µM | > 100 µM | > 100 µM
18 | O=c1cc(N2CCCC2)[nH]c(=O)n1-c1cccc(Cl)c1 | > 100 µM | > 100 µM | > 100 µM | > 100 µM | > 100 µM | > 100 µM | > 100 µM | > 100 µM | > 100 µM | > 100 µM
19 | C1=Cc2cc3c(c4nccc(c24)N1)OCO3 | > 32.1 µM | 26.3 µM | 22.3 µM | > 46.8 µM | 36.7 µM | > 30.6 µM | 34.8 µM | > 69.4 µM | 23.6 µM | > 76.7 µM
20 | O=C1NC(=S)NC(=O)C1C(c1ccc(O)cc1)C1C(=O)NC(=S)NC1=O | > 100 µM | > 100 µM | > 100 µM | > 100 µM | > 100 µM | > 100 µM | > 100 µM | > 100 µM | > 100 µM | > 100 µM
21 | CCOC(=O)c1cn2c(n1)sc1cc(Cl)ccc12 | > 100 µM | > 100 µM | > 100 µM | > 100 µM | > 100 µM | > 100 µM | > 100 µM | > 100 µM | > 100 µM | > 100 µM
22 | CC(C)=C[C@H]1CCC2(OCCO2)[C@]1(C)CO | > 100 µM | > 100 µM | > 100 µM |  | > 100 µM | > 100 µM | > 100 µM | > 100 µM | > 100 µM | > 100 µM
